Test results taken from patent US10265294B2, “Compositions and methods for treating epithelial cancer” (YALE UNIVERSITY, priority 2016, dated 2019).

Columns and labels:
[1] = tested on: OCC2 (CD44-/MyD88- ovarian cancer cells); test: IC50 against chemosensitive ovarian cancer cells OCC2; type: cell-based, human; conditions: read-out: IC50 (percentage of viable cells)
Protocol: CD44+/MyD88+ ovarian cancer stem cell clones (OCSC1 and OCSC2) and CD44−/MyD88− ovarian cancer cells (OCC1 and OCC2) were isolated from either tumor tissue or ascites obtained from patients diagnosed with stage III/IV serous ovarian cancer and propagated (Alvero, et al., 2009, Cell Cycle 8:158-166; Chefetz, et al., 2013, Cell Cycle 12:511-521). The epithelial nature of the isolated cells was determined by immunostaining for Ck18. Purity of the cultures based on CD44 expression by flow cytometry and chemoresistance were routinely tested. […]
(§1) Effect of each compound on cell morphology, growth, and viability was assessed using a kinetic live cell imaging system (Incucyte, Essen Bioscience). Proliferation was calculated as previously described (Alvero, et al., 2011, Mol. Cancer Ther. 10:1385-1393) using metrics from either confluence or fluorescent count from nuclear-restricted RFP or GFP. Cell death was quantified; similarly CELLTOX® Green Cytotoxicity Assay (Promega, Madison, Wis.). IC50 was calculated as described using GraphPad Prism (GraphPad Software Inc., LaJolla, Calif.).
Once the efficacy of TRX-E-002-1 against chemoresistant OCSC was established, its activity against two clones of chemosensitive ovarian cancer cells (OCC1 and OCC2) was determined.

[2] = tested on: co-culture of RFP-labeled OCSC2 and GFP-labeled OCC2; test: In vitro co-culture model 50% RFP-OCSC2 / 50% GFP-OCC2; type: cell-based; conditions: co-culture 50/50; TRX-E-002-1 0.12 μM, Cisplatin 20 μM
Protocol: CD44+/MyD88+ ovarian cancer stem cell clones (OCSC1 and OCSC2) and CD44−/MyD88− ovarian cancer cells (OCC1 and OCC2) were isolated from either tumor tissue or ascites obtained from patients diagnosed with stage III/IV serous ovarian cancer and propagated (Alvero, et al., 2009, Cell Cycle 8:158-166; Chefetz, et al., 2013, Cell Cycle 12:511-521). The epithelial nature of the isolated cells was determined by immunostaining for Ck18. Purity of the cultures based on CD44 expression by flow cytometry and chemoresistance were routinely tested. Stable expression of nuclear-restricted red fluorescent (in OCSCs) or green fluorescent proteins (in OCCs) was performed by transduction using NUCLIGHT® Red or Green Lentivirus Reagent (Essen Bioscience, Ann Arbor, Mich.). Spheroids were formed from OCSCs by culturing in ultra-low attachment multi-well plates (Corning, Inc., Corning, N.Y.).
as §1
Without wishing to be limited by any theory, response to chemotherapy may be modified by cross-talk among different cancer cell types within the tumor. Thus, to mimic the heterogeneity of ovarian tumors an in vitro co-culture model consisting of RFP-labeled chemoresistant OCSC2 and GFP-labeled chemosensitive OCC2 was used. The co-cultures, which are comprised of 50% RFP-OCSC2 and 50% GFP-OCC2 at time of treatment, were exposed to TRX-E-002-1, cisplatin, or the combination of both. Since GFP-OCC2 has faster doubling time than RFP-OCSC2, it overtook the control co-cultures by the end of the experiment and thus the control co-cultures are mainly comprised of GFP-OCC2 by the 24 h time-point (FIG. 2B).

ERK = test: Phosphokinase array / Western blot for phosphorylated ERK in OCSCs; type: cell-based, human; conditions: compared to controls; from 2 h up to 24 h post-treatment
Protocol: SDS-PAGE and Western blots were performed using 20 μg of total protein lysate as described in Kamsteeg, et al., 2003, Oncogene 22:2611-2620. Antibodies used were: mouse anti-phospho ERK (Santa Cruz Biotechnology, Inc., Dallas, Tex.); rabbit anti-phospho c-Jun, rabbit anti c-Jun, rabbit anti-ERK, rabbit anti-cleaved caspase 3 all from Cell Signaling Technology, Danvers, Mass.; and mouse anti-GAPDH (Sigma-Aldrich).
In order to elucidate the early pathways responsible for the sustained cytotoxic effect observed with TRX-E-002-1, a phosphokinase array was performed. The phosphokinase array detected relative phosphorylation levels of 43 different kinases involved in major signal transduction pathways.
The western blot results also validated the decrease in p-ERK in cells treated with TRX-E-002-1. […] The effect on the phosphorylation status of the kinases (upregulation of p-cJun and downregulation of p-ERK) was observed as early as 2 h post-treatment and maintained up to 24 h (FIG. 4A). The phosphorylation levels of c-Jun and ERK correlate with the differential ability of the two doses of TRX-E-002-1 to induce a sustained cytotoxic effect. […] This correlates with the ability of this dose of TRX-E-002-1 to maintain the upregulation of p-cJun and downregulation of p-ERK even when the compound is removed (FIG. 4B). […]

caspase-9 = test: Caspase Glo assay, caspase-9; type: cell-based, human; conditions: 0.245 μM; at 16 and 24 h post treatment
Protocol: Total protein was extracted and measured as described in Kamsteeg, et al., 2003, Oncogene 22:2611-2620. Activity of caspase 3/7 and caspase 9 was quantified using Caspase Glo assay (Promega).
The activities of caspase-3/7 and caspase-9 were assessed at 2, 4, 6, 8, 16, and 24 hours post-treatment with TRX-E-002-1.

[3] = tested on: i.p. tumors of mCherry+OCSC1-F2 ovarian cancer cells; test: Recurrent disease xenograft, maintenance treatment after Paclitaxel; type: in vivo
Description: The Yale University Institutional Animal Care and Use Committee approved all in vivo studies described. Intra-peritoneal tumors were established in athymic nude mice using 4×10^6 mCherry+OCSC1-F2 ovarian cancer cells (Craveiro, et al., 2013, Cancer Med. 2:751-762). Injection of cancer cells is designated as day 0 and treatment commenced between day 3-5. Establishment of i.p. tumors was confirmed by live imaging (In-Vivo FX PRO, Bruker Corp., Billerica, Mass.) prior to treatment. TRX-E-002-1 was prepared in 20% Captisol or Dexsolve and administered daily at 50 mg/kg or 100 mg/kg. Paclitaxel was given at 12 mg/kg q3d and Cisplatin at 5 mg/kg weekly. All treatments were given i.p. Tumor growth was monitored q3d by live imaging and response to treatment was assessed using ROI area.
Although the standard of care for ovarian cancer patients (platinum plus taxane) is effective initially, most patients develop recurrent disease. Recurrence is the major cause of mortality in ovarian cancer patients, and thus approaches that can prevent recurrence are critical to improve patient survival. As described elsewhere herein, a unique advantage of the xenograft model is the recapitulation of recurrent disease that is typically observed in patients with ovarian cancer. […] Upon recurrence, tumors acquire resistance and become unresponsive to a second-round of Paclitaxel regimen, as observed in ovarian cancer patients. Thus, the model allows one to assess the value of novel compounds in preventing recurrence when given as maintenance treatment.
Thus mice were given Paclitaxel as initial treatment. […] After the 4th dose of Paclitaxel mice were re-randomized into the different maintenance groups. Here the maintenance protocol consisted of continued treatment with Paclitaxel, or maintenance with TRX-E-002-1 (100 mg/kg), or maintenance with Vehicle control.

COc1cc(C2COc3c(ccc(O)c3C)C2c2ccc(O)cc2)cc(OC)c1O (single isomer, unassigned) [TRX-E-002-1]
IC50 [1]: 0.027 µM
number of GFP+ cells (GFP-OCC2) [2]: markedly reduced
number of mCherry+ cells (RFP-OCSC2) [2]: markedly reduced
levels of phosphorylated-ERK (p-ERK) (ERK): lower levels
caspase-9 activity (caspase-9): significant increase
tolerability of the maintenance schedule ([3]; TRX-E-002-1 100 mg/kg daily i.p. maintenance): no signs of disease or morbidity requiring euthanasia
tumor progression during maintenance treatment ([3]; after 4th dose of Paclitaxel, TRX-E-002-1 100 mg/kg daily i.p. or continued Paclitaxel): effectively retarded tumor proliferation
tumor burden (ROI area) versus group maintained with Paclitaxel ([3]; by day 35, TRX-E-002-1 100 mg/kg maintenance): significantly less
gross examination of residual disease ([3]; maintenance groups): microscopic metastasis
tumor weights at end point compared to control ([3]; maintenance groups): significantly reduced
